From PMC9687610, “Adenosine-Mimicking Derivatives of 3-Aminopyrazine-2-Carboxamide: Towards Inhibitors of Prolyl-tRNA Synthetase with Antimycobacterial Activity” (Biomolecules, 2022)
≈ marks a conversion by molar mass, not a printed value. Read-outs that look alike come from different tables or passages of the source.

What was measured:
[1] = test system: Candida krusei CCM 8271 (ATCC 6258); test: Antifungal microdilution broth (EUCAST), CK; type: cell-based; details: Pichia kudriavzevii; read after 24 h; read-out: CK MIC
[2] = test system: Trichophyton interdigitale CCM 8377 (ATCC 9533); test: Antifungal microdilution broth (EUCAST), TI; type: cell-based; details: Trichophyton interdigitale, 72 h, read-out: TI MIC
[3] = test system: Staphylococcus aureus subsp. aureus methicillin-resistant (MRSA) CCM 4750 (ATCC 43300); test: Antibacterial microdilution broth (EUCAST), MRSA; type: cell-based; details: Staphylococcus aureus; read after 24 h; read-out: MRSA MIC
[4] = test system: Escherichia coli CCM 3954 (ATCC 25922); test: Antibacterial microdilution broth (EUCAST), EC; type: cell-based; details: Escherichia coli; read after 24 h; read-out: EC MIC
[5] = test system: Candida parapsilosis CCM 8260 (ATCC 22019); test: Antifungal microdilution broth (EUCAST), CP; type: cell-based; details: Lodderomyces parapsilosis; read after 24 h; read-out: CP MIC
[6] = test system: Klebsiella pneumoniae CCM 4415 (ATCC 10031); test: Antibacterial microdilution broth (EUCAST), KP; details: read after 24 h
[7] = test system: HepG2 human hepatocellular carcinoma cells; test: In vitro HepG2 cytotoxicity (CellTiter 96); details: for IC50: Homo sapiens, HepG2, 24 h, read-out: HepG2 IC50, 24 h incubation, * limit = highest evaluated concentration (precipitation in medium), ** over the 1000 µM limit
[8] = test system: M. aurum DSM 43999 (ATCC 23366); test: Microplate Alamar Blue Assay (MABA), M. aurum; type: cell-based; details: Mycolicibacterium aurum, read-out: M. aurum MIC
[9] = test system: Aspergillus fumigatus ATCC 204305; test: Antifungal microdilution broth (EUCAST), AF; type: cell-based; details: Aspergillus fumigatus, ATCC204305; read after 24 h; read-out: AF MIC
[10] = test system: Staphylococcus epidermidis CCM 4418 (ATCC 12228); test: Antibacterial microdilution broth (EUCAST), SE; type: cell-based; details: read after 24 h, read-out: SE MIC
[11] = test system: Candida albicans CCM 8320 (ATCC 24433); test: Antifungal microdilution broth (EUCAST), CA; type: cell-based; details: Candida albicans; read after 24 h; read-out: CA MIC
[12] = test system: Lichtheimia corymbifera CCM 8077; test: Antifungal microdilution broth (EUCAST), LC; type: cell-based; details: Lichtheimia corymbifera, CCM8077; read after 24 h; read-out: LC MIC
[13] = test system: Acinetobacter baumannii DSM 30007 (ATCC 19606); test: Antibacterial microdilution broth (EUCAST), ACI; type: cell-based; details: Acinetobacter baumannii; read after 24 h; read-out: ACI MIC
[14] = test system: Enterococcus faecalis CCM 4224 (ATCC 29212); test: Antibacterial microdilution broth (EUCAST), EF; type: cell-based; details: Enterococcus faecalis; read after 24 h; read-out: EF MIC
[15] = test system: Aspergillus flavus CCM 8363; test: Antifungal microdilution broth (EUCAST), AFla; type: cell-based; details: Aspergillus flavus, CCM8363; read after 24 h; read-out: AFla MIC
[16] = test system: Mycobacterium tuberculosis H37Ra ITM-M006710 (ATCC 9431); test: Microplate Alamar Blue Assay (MABA), Mtb H37Ra; type: cell-based; details: for MIC: Mycobacterium tuberculosis, 120 h, pH 6.6, MABA, Middlebrook 7H9 broth pH 6.6, resazurin after 120 h, read-out: Mtb H37Ra MIC
[17] = test system: Candida tropicalis CCM 8264 (ATCC 750); test: Antifungal microdilution broth (EUCAST), CT; type: cell-based; details: Candida tropicalis; read after 24 h; read-out: CT MIC
[18] = test system: Staphylococcus aureus subsp. aureus CCM 4223 (ATCC 29213); test: Antibacterial microdilution broth (EUCAST), SA; type: cell-based; details: Staphylococcus aureus; read after 24 h; read-out: SA MIC
[19] = test system: Pseudomonas aeruginosa CCM 3955 (ATCC 27853); test: Antibacterial microdilution broth (EUCAST), PA; type: cell-based; details: Pseudomonas aeruginosa; read after 24 h; read-out: PA MIC
[20] = test system: Mycobacterium smegmatis DSM 43465 (ATCC 607); test: Microplate Alamar Blue Assay (MABA), M. smegmatis; type: cell-based; details: Mycolicibacterium smegmatis, read-out: M. smegmatis MIC

SMILES | MIC [1] [µM] | MIC [2] [µM] | MIC [3] [µM] | MIC [4] [µM] | MIC [5] [µM] | KP MIC [6] [µM] | IC50 [7] [µM] | MIC ([8]; MABA, resazurin after 72 h) [µg/mL] | MIC [9] [µM] | MIC [10] [µM] | MIC [11] [µM] | MIC [12] [µM] | MIC [13] [µM] | MIC [14] [µM] | MIC [15] [µM] | MIC [16] [µg/mL] | MIC [17] [µM] | melting point [°C] | MIC [18] [µM] | MIC [19] [µM] | also measured
COc1cccc(C(=O)Nc2nccnc2C(N)=O)c1 [Compound 8] | > 500 | > 500 | > 500 | > 500 | > 500 | > 500 | > 100 | ≥ 250 | > 500 | > 500 | > 500 | > 500 | > 500 | > 500 | > 500 | ≥ 250 | > 500 | 221 to 223 | > 500 | > 500 | MIC ([20]; MABA, resazurin after 48 h): ≥ 250 µg/mL
CC(C)(C)c1ccc(C(=O)Nc2nccnc2C(N)=O)cc1 [Compound 6] | > 125 | > 125 | > 125 | > 125 | > 125 | > 125 | 114 | ≥ 500 | > 125 | > 125 | > 125 | > 125 | > 125 | > 125 | > 125 | 15.6 (≈ 52.4 µM) | > 125 | 210 to 211.5 | > 125 | > 125 | MIC ([20]; 48 h): 15.6 µg/mL (≈ 52.4 µM)
NC(=O)c1nccnc1NC(=O)c1ccccc1Br [Compound 16] | > 500 | > 500 | > 500 | > 500 | > 500 | > 500 | > 500 | ≥ 250 | > 500 | > 500 | > 500 | > 500 | > 500 | > 500 | > 500 | ≥ 250 | > 500 | 223.1 to 225.1 | > 500 | > 500 | MIC ([20]; MABA, resazurin after 48 h): ≥ 250 µg/mL
Cc1ccc(C(=O)Nc2nccnc2C(=O)N(C)C)cc1 [Compound 36] | > 125 | > 125 | > 125 | > 125 | > 125 | > 125 | > 1000 | ≥ 500 | > 125 | > 125 | > 125 | > 125 | > 125 | > 125 | > 125 | ≥ 500 | > 125 | 188.7 to 189.5 | > 125 | > 125 | antimycobacterial activity (in words) ([16]; activity refers to Mtb H37Ra from the primary screening if not otherwise stated): inactive; MIC ([20]; MABA, resazurin after 48 h): ≥ 500 µg/mL
NC(=O)c1nccnc1NC(=O)C1CCCCC1 [Compound 27] | > 500 | > 500 | > 500 | > 500 | > 500 | > 500 | > 1000 | ≥ 500 | > 500 | > 500 | > 500 | > 500 | > 500 | > 500 | > 500 | 125 (≈ 503 µM) | > 500 | 105.5 to 107 | > 500 | > 500 | MIC ([20]; MABA, resazurin after 48 h): 250 µg/mL (≈ 1010 µM)
CCCCCCCC(=O)Nc1nccnc1C(N)=O [Compound 32] | > 250 | > 250 | > 250 | > 250 | > 250 | > 250 | > 1000 | 125 (≈ 473 µM) | > 250 | > 250 | > 250 | > 250 | > 250 | > 250 | > 250 | 250 (≈ 946 µM) | > 250 | 127.9 to 129.3 | > 250 | > 250 | MIC ([20]; MABA, resazurin after 48 h): 250 µg/mL (≈ 946 µM)
NC(=O)c1nccnc1NC(=O)c1cccc(Br)c1 [Compound 17] | > 125 | > 125 | > 125 | > 125 | > 125 | > 125 | > 5 |  | > 125 | > 125 | > 125 | > 125 | > 125 | > 125 | > 125 | ≥ 125 | > 125 | 255 to 256 | > 125 | > 125 | solubility in the testing medium (in words) ([7]; HepG2 cell culture medium): low solubility; MIC ([8]; 72 h): ≥ 125 µg/mL; MIC ([20]; 48 h): ≥ 125 µg/mL
COc1ccc(C(=O)Nc2nccnc2C(N)=O)cc1 [Compound 9] | > 125 | > 125 | > 125 | > 125 | > 125 | > 125 | > 250 |  | > 125 | > 125 | > 125 | > 125 | > 125 | > 125 | > 125 | ≥ 125 | > 125 | 257 to 258.5 | > 125 | > 125 | MIC ([8]; 72 h): ≥ 125 µg/mL; MIC ([20]; 48 h): ≥ 125 µg/mL
